Data from patent publication US8058243B2, “Method for treating a brain cancer with ifenprodil” (HSC Research and Development Limited Partnership, priority 2006, dated 2011).
Like-named read-outs stand apart in the source and are kept apart here.

Assays:
[1] = system: murine neural precursor cells (neurosphere cultures); assay: HTS of LOPAC library against secondary neurosphere cultures, MTT proliferation assay at 3 μM, day 7 (z score, P value); type: cell-based, mouse
[2] = system: mouse NSC neurosphere cultures; assay: Dose-response curves and EC50, neurosphere MTT proliferation, 7 days; type: cell-based
[3] = system: ptc1+/− medulloblastoma precursor cells (neurosphere cultures); assay: Medulloblastoma tumor sphere MTT proliferation EC50; type: cell-based, mouse
Excerpt: (§1) Astrocyte Screen and Neurosphere Selectivity Assessment. […] Murine Medulloblastoma Generation and Culture. […] Flow Cytometry. […] Results

[4] = system: hGBM1 precursors (WHO grade IV GBM); assay: Human glioblastoma precursor EC50 (hGBM1); type: cell-based
[5] = system: hGBM2 precursors (WHO grade IV GBM, giant cell variant); assay: Human glioblastoma precursor EC50 (hGBM2); type: cell-based
[6] = cited from earlier work
[7] = system: ptc1+/− tumor cell growth; settings: cited from earlier work
NPC colony formation = assay: Inhibition of colony formation by bromocriptine with and without (±)-sulpiride; type: cell-based, mouse
Excerpt: (e) Inhibition of colony formation by bromocriptine in cultures with and without (±)-sulpiride supplementation. Normalized mean and s.e.m. values of three independent triplicate cultures are shown. […] Scale bars, 500 mm.

[8] = system: medulloblastoma formation; settings: mice; cited from earlier work
[9] = system: Ptch1+/− Trp53−/− medulloblastoma neurosphere cultures; assay: Tumor sphere MTT proliferation EC50; type: cell-based, mouse; settings: cultures derived from mouse cerebellar tumor samples; read-out: Ptch1+/− Trp53−/− neurosphere EC50
Excerpt: as §1

[10] = system: neural precursors derived from human fetal CNS tissue (hFetal); assay: Human fetal neural precursor EC50; type: cell-based
[11] = system: nestin expression in NPCs; assay: Flow cytometric analysis of nestin in NPCs; type: cell-based, mouse
Experimental: (d) Flow cytometric analysis of the neural precursor marker nestin in NPCs after 2 d of treatment with ifenprodil (5 μM) or vehicle.

[12] = system: NSC fraction of neurosphere cultures; settings: 7 day pretreatment at estimated EC75 (apomorphine EC50); 2,000 or 1,000 cells
[13] = LOPAC library screen, 3 μM, MTT, secondary neurosphere cultures, day 7
[14] = LOPAC primary screen, neurosphere MTT proliferation, 3 μM, day 7
[15] = 168 h, normal mouse neurosphere cultures, MTT, 7 days, read-out: Neurosphere EC50
[16] = Mus musculus, read-out: EC 50% Neurosphere, Table 5
[17] = Mus musculus, Table 8, read-out: Neurosphere EC50
[18] = Mus musculus, ptc1+/− medulloblastoma derived neurospheres, read-out: Medulloblastoma Neurosphere EC50
[19] = cultures derived from mouse cerebellar tumor samples, read-out: Ptch1+/− neurosphere EC50
[20] = yes/no: significantly inhibited neurosphere proliferation (P<0.01) in the primary screen
[21] = Table 8, read-out: Neurosphere EC50
[22] = normal mouse neurosphere cultures, MTT, 7 days, read-out: Neurosphere EC50
[23] = read-out: EC 50% Neurosphere, Table 5
[24] = ptc1+/− medulloblastoma derived neurospheres, read-out: Medulloblastoma Neurosphere EC50

In the case of `CN1CCc2cccc3c2[C@H]1Cc1ccc(O)c(O)c1-3` [(R)-(−)-Apomorphine (6), (R)-(−)-Apomorphine], the Activity [1] is reported as “yes”, the “Z Score” value [1, 13] is reported as −11.27 and the Z score [1, 14] is reported as −11.274. It also gave an EC50 [2, 15] of 350 nM, an EC50 [2, 16] of 350 nM and an EC50 [2, 17] of 350 nM. The EC50 [3, 18] was 168 nM, the EC50 [3, 19] was 168 nM and the EC50 ([4]; Homo sapiens) was 14600 nM. For the same molecule, the EC50 ([5]; Homo sapiens) was 310 nM and the “Effective in vivo concentrations” value [6] was 6 to 7 µM.
In the case of `CC1=C2C[C@H]3[C@@H](CC=C4C[C@@H](O)CC[C@@]43C)[C@@H]2CC[C@]12O[C@@H]1C[C@H](C)CN[C@H]1[C@H]2C` [Cyclopamine (16), Cyclopamine], the EC50 ([3]; Mus musculus, read-out: Ptch1+/− neurosphere EC50) is listed as 1000 nM and the “reported concentration for inhibition of ptc1+/− tumor cell growth in vitro” value [7] is listed as 5 µM.
For `CCN1CCCC1CNC(=O)c1cc(S(N)(=O)=O)ccc1OC` (racemic) [(±)-sulpride, reference compound], the Z score [1, 14] was −0.284, the Activity [1, 20] was “no” and the “rescue of the inhibitory effects of bromocriptine” value (NPC colony formation; colony formation and MTT values) was “able to competitively rescue the inhibitory effects”.
For `O=C(Nc1ccccc1)C12CC1/C(=N\O)c1ccccc1O2` (stereo not drawn) [PHCCC], the “medulloblastoma formation in vivo” value [8] is given as “attenuate medulloblastoma formation”.
Work on `CC(C)C[C@H]1C(=O)N2CCC[C@H]2[C@]2(O)O[C@](NC(=O)[C@@H]3C=C4c5cccc6[nH]c(Br)c(c56)C[C@H]4N(C)C3)(C(C)C)C(=O)N12` [(+)-Bromocripline (18), (+)-Bromocripline] yielded an EC50 [2, 21] of 1190 nM, an EC50 (NPC colony formation; with (±)-sulpiride supplementation, read-out: EC50 of inhibition of colony formation, with sulpiride) of 2500 nM and an EC50 (NPC colony formation; without sulpiride, read-out: EC50 of inhibition of colony formation, without sulpiride) of 1200 nM.
For `Nc1ccc(CCN2CCN(c3cccc(C(F)(F)F)c3)CC2)cc1` [PAPP (14), p-aminophenethyl-m-trifluoromethylphenyl piperazine], the Activity [1] was “yes”, the “Z Score” value [1] was −10.73 and the Z score [1] was −10.728. The EC50 [2, 21] was 31 nM, the EC50 [2, 22] was 31 nM and the EC50 [2, 23] was 31 nM. It also gave an EC50 [3, 19] of 169 nM, an EC50 [3, 24] of 169 nM and an EC50 [9] of 97 nM. For the same molecule, the EC50 [10] was 220 nM, the EC50 [4] was 1870 nM and the EC50 [5] was 310 nM. The “expression of the immature NPC marker nestin” value [11] was “substantially decreased” and the “secondary neurosphere formation upon re-culture in the absence of drug (replating efficiency)” value [12] was “reduction in replating efficiency”.
`O[Si](CCCN1CCCCC1)(c1ccc(F)cc1)C1CCCCC1` (stereo not drawn) [p-F-HHSiD (8), p-fluoro-hexahydrosila-difenidol] showed an EC50 [2, 21] of 441 nM, an EC50 [2, 22] of 441 nM and an EC50 [2, 23] of 441 nM. It also gave an EC50 [3, 19] of 1120 nM, an EC50 [3, 24] of 1120 nM and an EC50 [9] of 1370 nM. The EC50 [10] was 10600 nM, the EC50 [4] was 12600 nM and the EC50 [5] was 1230 nM.
With `CC(C(O)c1ccc(O)cc1)N1CCC(Cc2ccccc2)CC1` (stereo not drawn) [Ifenprodil (9), Ifenprodil] the “Z Score” value [1, 13] was −8.904, the Z score [1, 14] was −8.904 and the Activity [1, 20] was “yes”. It also gave an EC50 [2, 15] of 616 nM, an EC50 [2, 16] of 616 nM and an EC50 [2, 17] of 616 nM. For the same molecule, the EC50 [3, 18] was 451 nM, the EC50 [3, 19] was 451 nM and the EC50 [9] was 807 nM. For the same molecule, the EC50 [10] was 420 nM, the EC50 ([4]; Homo sapiens) was 1990 nM and the EC50 ([5]; Homo sapiens) was 206 nM. The nestin negative cells ([11]; 2 d treatment, 5 μM, vehicle 20%) was 63% and the “expression of the immature NPC marker nestin” value ([11]; treatment for 2 d) was “substantially decreased”.
